For data set [1] the following is noted: published Phase 2 clinical trial data; compared to morphine; cited from earlier work.
The target in data set [2] is hERG potassium channels (Homo sapiens (Human), UniProt Q12809). The data set can be described thus: Effects on hERG potassium channels (Qpatch, CHO-hERG cells). The data set is classed as cell-based. The note with it: highest test concentration 40 μM, read-out: IC50 representing the blocking effects of hERG potassium currents. As for the experimental part:
5.1 Experimental Purpose: To test the blocking effects of the compounds of the present disclosure on hERG potassium currents.
a. CHO-hERG cells were cultured in a 175 cm^2 culture flask. When the cells were grown to a density of 60 to 80%, the culture solution was removed, and the cells were washed once with 7 mL of PBS (phosphate buffer solution), and then 3 mL of a cell digestion solution (Detachin) was added for digestion of the cells.
b. After completely digested, the cells were neutralized by adding 7 mL of the culture solution and then centrifuged, the supernatant was removed, and then 5 mL of the culture solution was added for resuspension to ensure a cell density of 2 to 5×10^6 cells/mL.
The single-cell high-impedance sealing and whole-cell pattern formation processes were both carried out automatically by the Qpatch instrument. After the whole-cell recording pattern was obtained, the cells were clamped at −80 millivolts. A preceding voltage of −50 millivolts was applied for 50 milliseconds prior to application of a depolarizing stimulus of +40 millivolts for 5 seconds, and then the cells were repolarized to −50 millivolts and maintained for 5 seconds and then returned back to −80 millivolts. This voltage stimulation was applied every 15 seconds, and data were recorded for 2 minutes, and thereafter the extracellular fluid was administered and data were recorded for 5 minutes, and then the administration process was started. The compound was administered for 2.5 minutes at each test concentration from the lowest test concentration. After all the concentrations of the compound were administered, […] of Cisapride was administered as a positive comparative compound. At least three cells (n>3) were tested for each concentration.
a. A 20 mM compound mother solution was diluted with the extracellular fluid, wherein 5 μL of the 20 mM compound mother solution was taken and diluted 500 times to 40 μM by adding 2495 μL of the extracellular fluid thereto, and then 3-fold serial dilutions were performed sequentially in the extracellular fluid containing 0.2% DMSO to obtain a final concentration to be tested.
b. The highest test concentration was 40 μM, and there were six concentrations in total, i.e., 40, 13.33, 4.44, 1.48, 0.49, and 0.16 μM, respectively.
c. The DMSO content in the final test concentration was not more than 0.2%. This concentration of DMSO had no effect on the hERG potassium channel.
The experimental data were analyzed by XLFit software.

Structures can show the parent of a compound that is named as a salt.

A word on the IC50: it is the midpoint of a concentration-inhibition curve.

hERG potassium channels, sequence (Q12809 whole entry): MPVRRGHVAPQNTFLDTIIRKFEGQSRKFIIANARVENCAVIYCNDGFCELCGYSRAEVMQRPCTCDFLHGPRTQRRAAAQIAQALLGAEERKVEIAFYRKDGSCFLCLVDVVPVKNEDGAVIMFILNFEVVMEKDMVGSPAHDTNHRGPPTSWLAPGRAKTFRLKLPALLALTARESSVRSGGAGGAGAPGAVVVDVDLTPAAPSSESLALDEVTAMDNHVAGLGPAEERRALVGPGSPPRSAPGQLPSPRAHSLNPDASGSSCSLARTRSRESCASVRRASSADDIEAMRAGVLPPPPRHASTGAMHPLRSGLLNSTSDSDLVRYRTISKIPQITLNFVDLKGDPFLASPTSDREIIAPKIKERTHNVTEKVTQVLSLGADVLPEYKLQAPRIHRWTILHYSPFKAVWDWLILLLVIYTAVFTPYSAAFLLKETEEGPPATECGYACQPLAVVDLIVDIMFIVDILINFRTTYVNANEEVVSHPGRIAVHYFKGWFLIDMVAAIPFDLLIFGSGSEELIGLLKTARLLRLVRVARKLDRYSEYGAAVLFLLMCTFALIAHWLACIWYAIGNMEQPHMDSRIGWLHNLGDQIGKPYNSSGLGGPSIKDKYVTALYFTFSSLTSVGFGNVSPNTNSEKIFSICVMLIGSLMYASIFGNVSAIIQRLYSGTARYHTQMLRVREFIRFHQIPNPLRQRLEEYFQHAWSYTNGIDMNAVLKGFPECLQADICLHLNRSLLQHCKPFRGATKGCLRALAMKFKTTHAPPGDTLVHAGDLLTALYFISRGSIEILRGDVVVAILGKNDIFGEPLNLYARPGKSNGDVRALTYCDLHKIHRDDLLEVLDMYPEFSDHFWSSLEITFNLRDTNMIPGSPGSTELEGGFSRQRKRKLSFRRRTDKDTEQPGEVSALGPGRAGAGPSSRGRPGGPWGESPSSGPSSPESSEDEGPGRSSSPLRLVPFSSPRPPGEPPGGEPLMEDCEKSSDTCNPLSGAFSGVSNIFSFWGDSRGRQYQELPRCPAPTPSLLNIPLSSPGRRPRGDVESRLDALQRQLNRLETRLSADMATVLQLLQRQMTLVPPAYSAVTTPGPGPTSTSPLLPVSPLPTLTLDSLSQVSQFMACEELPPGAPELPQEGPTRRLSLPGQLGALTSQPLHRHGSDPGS

For `COc1ccsc1CNCC[C@@]1(c2ccccn2)CCOC2(CCCC2)C1` [compound 1, Oliceridine, reference compound], the “side effects, Phase 2 clinical trial (in words)” value in data set [1] was “significant reduction in side effects compared to morphine”. Moreover, the IC50 in data set [2] was 5.5 µM.
`c1ccc([C@]2(CCNCc3scc4c3CCC4)CCO[C@]3(CCOC3)C2)nc1` [(+)-2]: the IC50 in data set [2] was more than 40 µM.
For the molecule `Cc1cccc(CNCC[C@@]2(c3ccc(F)cn3)CCO[C@]3(CCOC3)C2)c1` [Hydrochloride Salt of (+)-22], the half-inhibitory concentration (IC50) in data set [2] turned out to be 18.8 µM.

The values are drawn from US11124523B2, “2,6-dioxaspiro [4,5] decane derivatives and preparation method therefor and pharmaceutical applications thereof” (SHANDONG LUYE PHARMACEUTICAL CO., LTD., priority 2017, dated 2021).
